molecular target: human DP2 (Homo sapiens (Human), UniProt Q9Y5Y4); test: DP-2 Binding Inhibition Assay (3H-PGD2 binding to membranes of K562 cells expressing DP2); conditions: read-out: EC50 (nM) 4% HSA; inhibition of 3H-PGD2 binding, 4% HSA
In short: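 Radioligand filtration binding: ³H-PGD2 displacement from DP2-expressing K562 cell membranes, 60 min, room temperature, pH 7.4, under 0.1% BSA, 1% HSA or 4% HSA.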

Chain of human DP2 (Q9Y5Y4 whole entry): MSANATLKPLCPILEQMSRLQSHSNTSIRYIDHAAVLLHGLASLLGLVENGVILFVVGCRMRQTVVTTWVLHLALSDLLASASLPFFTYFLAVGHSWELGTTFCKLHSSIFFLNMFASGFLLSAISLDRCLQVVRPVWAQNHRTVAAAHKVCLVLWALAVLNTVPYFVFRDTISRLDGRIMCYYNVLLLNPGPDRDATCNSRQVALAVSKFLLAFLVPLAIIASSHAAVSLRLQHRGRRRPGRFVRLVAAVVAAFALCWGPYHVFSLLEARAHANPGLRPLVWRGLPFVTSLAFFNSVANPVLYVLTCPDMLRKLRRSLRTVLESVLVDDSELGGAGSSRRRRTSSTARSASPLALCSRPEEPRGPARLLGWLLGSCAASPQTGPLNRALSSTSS

Row | EC50 [nM] | SMILES
1 | 1730 | O=C(NC(CO)Cc1ccc(Cl)cc1)c1ccc(Oc2cc3c(cc2Cl)C(C(=O)O)CCO3)cc1 (centres unmarked) [Example 178, Sodium 6-chloro-7-(4-(1-(4-chlorophenyl)-3-hydroxypropan-2-ylcarbamoyl)phenoxy)chroman-4-carboxylate]
2 | 1110 | CC(C)(C)CCNC(=O)c1ccc(Oc2cc3c(cc2Cl)C(C(=O)O)CCO3)cc1 (centres unmarked) [Example 179, Sodium 6-chloro-7-(4-(3,3-dimethylbutylcarbamoyl)phenoxy)chroman-4-carboxylate]
3 | 407 | O=C(NCCC1CCCCC1)c1ccc(Oc2cc3c(cc2Cl)C(C(=O)O)CCO3)cc1 (centres unmarked) [Example 180, Sodium 6-chloro-7-(4-(2-cyclohexylethylcarbamoyl)phenoxy)chroman-4-carboxylate]
4 | 331 | Cc1cc(C(=O)NCCc2ccc(Cl)cc2)ccc1Oc1cc2c(cc1Cl)C(C(=O)O)CCO2 (centres unmarked) [Example 181, Sodium 6-chloro-7-(4-(4-chlorophenethylcarbamoyl)-2-methylphenoxy)chroman-4-carboxylate]
5 | 151 | Cc1cc(C(=O)NCCc2ccc(Cl)cc2Cl)ccc1Oc1cc2c(cc1Cl)C(C(=O)O)CCO2 (centres unmarked) [Example 182, Sodium 6-chloro-7-(4-(2,4-dichlorophenethylcarbamoyl)-2-methylphenoxy)chroman-4-carboxylate]
6 | 968 | Cc1cc(Oc2cc3c(cc2Cl)C(C(=O)O)CCO3)ccc1C(=O)NCCc1ccc(Cl)cc1Cl (centres unmarked) [Example 183, Sodium 6-chloro-7-(4-(2,4-dichlorophenethylcarbamoyl)-3-methylphenoxy)chroman-4-carboxylate]
7 | 824 | O=C(NCC(O)c1ccc(Cl)cc1)c1ccc(Oc2cc3c(cc2Cl)C(C(=O)O)CCO3)cc1 (centres unmarked) [Example 184, Sodium 6-chloro-7-(4-(2-(4-chlorophenyl)-2-hydroxyethylcarbamoyl)phenoxy)chroman-4-carboxylate]
8 | 857 | O=C(NCC(O)c1ccccc1Cl)c1ccc(Oc2cc3c(cc2Cl)C(C(=O)O)CCO3)cc1 (centres unmarked) [Example 185, Sodium 6-chloro-7-(4-(2-(2-chlorophenyl)-2-hydroxyethylcarbamoyl)phenoxy)chroman-4-carboxylate]
9 | 538 | O=C(NCCC1CCCC1)c1ccc(Oc2cc3c(cc2Cl)C(C(=O)O)CCO3)cc1 (centres unmarked) [Example 186, Sodium 6-chloro-7-(4-(2-cyclopentylethylcarbamoyl)phenoxy)chroman-4-carboxylate]
10 | 649 | O=C(NC1COC2(CCCC2)C1)c1ccc(Oc2cc3c(cc2Cl)C(C(=O)O)CCO3)cc1 (centres unmarked) [Example 187, Sodium 7-(4-(1-oxaspiro[4.4]nonan-3-ylcarbamoyl)phenoxy)-6-chlorochroman-4-carboxylate]
11 | 759 | COC(CNC(=O)c1ccc(Oc2cc3c(cc2Cl)C(C(=O)O)CCO3)cc1)c1ccc(Cl)cc1 (centres unmarked) [Example 188, Sodium 6-chloro-7-(4-(2-(4-chlorophenyl)-2-methoxyethylcarbamoyl)phenoxy)chroman-4-carboxylate]
12 | 640 | O=C(NCCc1cccc2c1OCO2)c1ccc(Oc2cc3c(cc2Cl)C(C(=O)O)CCO3)cc1 (centres unmarked) [Example 193, sodium 7-(4-(2-(benzo[d][1,3]dioxol-4-yl)ethylcarbamoyl)phenoxy)-6-chlorochroman-4-carboxylate]

Continued, molecule first:

Row | SMILES | EC50 [nM]
13 | COc1cccc(C2CCCC(NC(=O)c3ccc(Oc4cc5c(cc4Cl)C(C(=O)O)CCO5)cc3)C2)c1 (centres unmarked) [Example 163, 6-Chloro-7-(4-(3-(3-methoxyphenyl)cyclohexylcarbamoyl)phenoxy)chroman-4-carboxylic acid] | 509
14 | O=C(NC1CCCC(c2ccc(Cl)cc2)C1)c1ccc(Oc2cc3c(cc2Cl)C(C(=O)O)CCO3)cc1 (centres unmarked) [Example 164, Sodium 6-chloro-7-(4-(3-(4-chlorophenyl)cyclohexylcarbamoyl)phenoxy)chroman-4-carboxylate] | 183
15 | O=C(NC1CCC(c2ccccc2)C1)c1ccc(Oc2cc3c(cc2Cl)C(C(=O)O)CCO3)cc1 (centres unmarked) [Example 165, 6-chloro-7-(4-(3-phenylcyclopentylcarbamoyl)phenoxy)chroman-4-carboxylic acid] | 401
16 | Cc1ccc(C2CCC(NC(=O)c3ccc(Oc4cc5c(cc4Cl)C(C(=O)O)CCO5)cc3)C2)cc1 (centres unmarked) [Example 166, 6-Chloro-7-(4-(3-p-tolylcyclopentylcarbamoyl)phenoxy)chroman-4-carboxylic acid] | 272
17 | O=C(NC1CCC(c2cccc(Cl)c2)C1)c1ccc(Oc2cc3c(cc2Cl)C(C(=O)O)CCO3)cc1 (centres unmarked) [Example 167, 6-Chloro-7-(4-(3-(3-chlorophenyl)cyclopentylcarbamoyl)phenoxy)chroman-4-carboxylic acid] | 179
18 | O=C(NC1CCC(c2ccc(Cl)cc2)C1)c1ccc(Oc2cc3c(cc2Cl)C(C(=O)O)CCO3)cc1 (centres unmarked) [Example 168, Sodium 6-chloro-7-(4-(3-(4-chlorophenyl)cyclopentylcarbamoyl)phenoxy)chroman-4-carboxylate] | 302
19 | Cc1cccc(C2CCC(NC(=O)c3ccc(Oc4cc5c(cc4Cl)C(C(=O)O)CCO5)cc3)C2)c1 (centres unmarked) [Example 169, Sodium 6-chloro-7-(4-(3-(3-methylphenyl)cyclopentylcarbamoyl)phenoxy)chroman-4-carboxylate] | 204
20 | O=C(NC1CCC(c2cccc(C(F)(F)F)c2)C1)c1ccc(Oc2cc3c(cc2Cl)C(C(=O)O)CCO3)cc1 (centres unmarked) [Example 170, Sodium 6-chloro-7-(4-(3-(3-(trifluoromethyl)phenyl)cyclopentylcarbamoyl)phenoxy)chroman-4-carboxylate] | 298
21 | O=C(NC1CCC(c2cccc(F)c2)C1)c1ccc(Oc2cc3c(cc2Cl)C(C(=O)O)CCO3)cc1 (centres unmarked) [Example 171, Sodium 6-chloro-7-(4-(3-(3-fluorophenyl)cyclopentylcarbamoyl)phenoxy)chroman-4-carboxylate] | 333
22 | CSc1cccc(C2CCC(NC(=O)c3ccc(Oc4cc5c(cc4Cl)C(C(=O)O)CCO5)cc3)C2)c1 (centres unmarked) [Example 172, Sodium 6-chloro-7-(4-(3-(3-(methylthio)phenyl)cyclopentylcarbamoyl)phenoxy)chroman-4-carboxylate] | 282
23 | O=C(NC1CCC(c2ccc(Cl)c(Cl)c2)C1)c1ccc(Oc2cc3c(cc2Cl)C(C(=O)O)CCO3)cc1 (centres unmarked) [Example 173, Sodium 6-chloro-7-(4-(3-(3,4-dichlorophenyl)cyclopentylcarbamoyl)phenoxy)chroman-4-carboxylate] | 327
24 | COc1ccc(C2CCC(NC(=O)c3ccc(Oc4cc5c(cc4Cl)C(C(=O)O)CCO5)cc3)C2)cc1 (centres unmarked) [Example 174, Sodium 6-chloro-7-(4-(3-(4-methoxyphenyl)cyclopentylcarbamoyl)phenoxy)chroman-4-carboxylate] | 723
25 | CSc1ccc(C2CCC(NC(=O)c3ccc(Oc4cc5c(cc4Cl)C(C(=O)O)CCO5)cc3)C2)cc1 (centres unmarked) [Example 175, Sodium 6-chloro-7-(4-(3-(4-(methylthio)phenyl)cyclopentylcarbamoyl)phenoxy)chroman-4-carboxylate] | 572
26 | O=C(NC1CCC(c2ccc(Cl)cc2)CC1)c1ccc(Oc2cc3c(cc2Cl)C(C(=O)O)CCO3)cc1 (centres unmarked) [Example 176, Sodium 6-chloro-7-(4-(4-(4-chlorophenyl)cyclohexylcarbamoyl)phenoxy)chroman-4-carboxylate] | 339

From patent US9556139B2, “6-substituted phenoxychroman carboxylic acid derivatives” (Array BioPharma Inc., priority 2008, dated 2017)
